The values that follow come from patent publication US20240327459A1, “PEPTIDE FRAGMENTS FOR TREATMENT OF DIABETES” (Follicum AB, priority 2018, published 2024).

One assay has as its system INS-1E cells. In words: Insulin secretion from INS-1E cells (Example 18). The format is cell-based, rat. The conditions noted are these: 100 nM peptide, high (16.7 mM) glucose buffer, 60 min, vs un-supplemented buffer. On the procedure: To investigate the stimulatory effect of FOL-056 on insulin secretion we used INS-1E cells. The cells were seeded overnight and washed with PBS before pre-incubation for 60 min at 37° C. in Krebs-Ringer bicarbonate buffer (KRB), pH 7.4, supplemented with 10 mM HEPES, 0.1% bovine serum albumin. Following pre-incubation, the buffer was discarded and the INS-1E cells were incubated in fresh KRB buffer supplemented with 10 mM HEPES, 0.1% bovine serum albumin with or without peptide FOL-056. For comparative purposes cells treated with FOL-014 was included. Following 60 min incubation at 37.C, the buffer was removed and frozen for subsequent insulin assay.

In a further assay the test system is isolated mouse islets. In words: Insulin and glucagon secretion from isolated mouse islets (Example 12). The format is cell-based. Here is the method: Twelve-week-old male C57/bl6 mice were euthanized with isoflurane and cervical dislocation. After clamping the hepatic ducts, 3 ml of 0.9 U/ml collagenase P was injected into the bile duct to inflate the pancreas. The pancreas was then removed and digested for 19 min at 37° C. The samples were vigorously shaken to disrupt the tissue. The digest was quickly transferred into ice cold Hank's Balanced Salts Solution with Ca^2+ and Mg^2+. The suspension was allowed to sit for 8 min to allow the islet to sink, and the islets were washed in the same manner four times. The islets were then handpicked and sorted according to size.
Freshly isolated islets were seeded in groups of 5 in a 96-well plate and preincubated for 1 h at 37° C. in a Krebs-Ringer bicarbonate buffer (pH 7.4). The islets were incubated for 1 h at 37° C. in Krebs-Ringer buffered solution supplemented with 0.6 or 6 μM FOL-014 or 100 nM GLP-1 or left unsupplemented for control. Immediately after incubation, the medium was removed for assays of insulin and glucagon using Mercodia's ELISA kits. The effect of FOL-014 on insulin (FIGS. 8A and B) and glucagon (FIGS. 8C and D) secretion from isolated mouse islets was measured in the presence of low glucose (2.8 mM; FIGS. 8A and C) or high glucose (16.7 mM; FIGS. 8B and D) concentrations.

[1] abbreviates: low glucose (2.8 mM), FOL-014 0.6 or 6 μM.

With “KPLAEIDSIELSYGIK (MISC_FEATURE - peptide, FOL-014)”, the insulin secretion result in the assay with INS-1E cells is reported as “resulted in a significant increase in insulin secretion”; with isolated mouse islets (high glucose (16.7 mM), 600 nM) it was “significantly increased insulin secretion”; in the assay with isolated mouse islets (high glucose (16.7 mM), 6 μM) it was “but not 6 μM FOL-014, significantly increased insulin secretion”; with isolated mouse islets (setting [1]) it was “did not increase insulin secretion”. In addition, the glucagon secretion entry in the assay with isolated mouse islets (high glucose (16.7 mM), both concentrations (0.6 and 6 μM)) was “efficiently reduced glucagon secretion”; in the assay on isolated mouse islets (setting [1]) it was “reduced glucagon secretion as compared with control and GLP-1”.
